Assay results: PMC9233675, “Ru(II) photocages enable precise control over enzyme activity with red light” (Nature Communications, 2022)
Several values for one entry are separate records, joined by “and”; a condition that tells them apart may be missing. Equal entries are not always repeated.

Tests used:
[1] = Irradiation-induced 1O2 production (Singlet Oxygen Sensor Green assay); format: physicochemical; details: sheet S27; triplicate columns; DMSO control about 0.9
Description: Some Ru(II) complexes can generate singlet oxygen when photoexcited, a feature that has been applied to the selective photoinactivation of proteins. In this approach, the Ru(II) system is conjugated to a peptide that is a specific ligand for the protein target; binding of the peptide to the protein ensures close proximity of the Ru(II) center and thus, upon photoexcitation, the generation of a high local concentration of singlet oxygen. […] As very little of this reactive oxygen species was generated, inactivation of the CYP enzymes by this process appears unlikely.
Supplementary Figure 27. Determination of irradiation-induced 1O2 production with 660 nm light (1 hr = 58.7 J/cm2)
using the Singlet Oxygen Sensor Green assay. […]

[2] = Stability of complexes at 37 °C in the dark (HPLC, UV/Vis); format: physicochemical; details: for Stability, % remaining at 24 h: 37 °C in H2O, dark
Protocol: The stability of each complex was assessed over 24 h under aqueous conditions at 37 °C (Supplementary Figs. 12–15). […] Given the potency of the caged inhibitor, thermal stability is of critical importance, making complex 6 the preferred photocaged candidate.
Opti-MEM with 2% fetal bovine serum (right) at 37 °C in the dark over the course of 0 (blue line) to 24 h (black dashed line). Compounds were tested in triplicate (n = 3), the data for one replicate are presented. Complexes 4 and 5 slowly degraded in the experiment condition (see HPLC traces, Figures S13–14). The decrease in absorbance for complex 6 is explained by the slow aggregation of the compound in the 96-well plate.
(1 picture or pasted object on this page, not shown here)
Supplementary Figure 13. a HPLC chromatogram analysis of stability of 4 (50 µM in di-H2O) before (black dashed line, purity > 92 % ) and after incubation at 37 °C for 24 hours (red line). At 24 hours, 43 % of 4 was […]
Supplementary Figure 14. HPLC chromatogram analysis of stability of 5 (50 µM in di-H2O) before (black dashed line, purity > 97 %) and after incubation at 37 °C for 24 hours (red line). At 24 hours, 50 % of 5 was observed […]
Supplementary Figure 15. HPLC chromatogram analysis of stability of 6 (40 µM in di-H O : MeCN mixture (4:1), […]
MeCN was added to reduce the aggregation) before (black dashed line, purity > 99.5 %) and after incubation at 37 °C for 24 hours. At 24 hours, less than 2 % degradation was observed (calculated by area, detection wavelength = […]
Supplementary Figure 16. HPLC chromatogram analysis of stability of 6 (40 µM) in 5 % DMSO / di-H2O with a 100 μM GSH, b 100 μM imidazole and c acidic condition (pH = 1) after incubation at 37 °C for 72 hours. Less than […]
detection wavelength = 280 nm). […]
imidazole and c acidic condition (pH = 1) after incubation at 37 °C for 72 hours. d At 72 hours less than 7 % degradation was observed by HPLC at pH = 1 (calculated by area, detection wavelength = 280 nm). Compounds were tested in triplicate (n = 3), the data for one replicate are presented.

recombinant CYP1B1 = target: T1, recombinant CYP1B1 (Homo sapiens, UniProt Q16678); experiment: CYP1B1 stability: thermal melt by circular dichroism
T1 sequence (Q16678 51-543 limits assumed): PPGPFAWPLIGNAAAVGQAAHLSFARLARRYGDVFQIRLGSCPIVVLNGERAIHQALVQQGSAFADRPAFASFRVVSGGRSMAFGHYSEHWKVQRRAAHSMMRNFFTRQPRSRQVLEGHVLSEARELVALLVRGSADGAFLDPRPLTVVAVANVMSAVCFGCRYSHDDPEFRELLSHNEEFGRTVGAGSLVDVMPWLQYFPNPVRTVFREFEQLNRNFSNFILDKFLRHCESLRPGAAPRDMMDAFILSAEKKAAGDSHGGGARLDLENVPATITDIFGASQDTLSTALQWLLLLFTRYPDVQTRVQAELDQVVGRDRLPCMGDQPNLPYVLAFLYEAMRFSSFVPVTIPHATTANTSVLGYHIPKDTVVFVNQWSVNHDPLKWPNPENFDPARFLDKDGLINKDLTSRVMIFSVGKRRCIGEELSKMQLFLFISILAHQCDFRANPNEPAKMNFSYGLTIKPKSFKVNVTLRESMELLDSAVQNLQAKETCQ
Protocol: Circular Dichroism (CD) was used to monitor changes in the secondary structure with increasing temperature. […] CYP1B1 was expressed and purified as reported. […] Spectra were taken scanning from 200 to 260 nm in duplicate. The temperature was increased followed by a 3 min equilibration period before spectra acquisition. The ellipticity values at 230 nm were plotted against temperature and fit to determine the Tm (Prism).

For COc1ccc(/C=C/c2cc[n+]([Ru-4]345([n+]6ccccc6-c6cccc([n+]63)-c3cccc[n+]34)[n+]3c(cc(C(=O)[O-])c4ccccc43)-c3cc(C(=O)[O-])c4ccccc4[n+]35)cn2)c(OC)c1 [Compound 5], the “irradiation-induced 1O2 production (Singlet Oxygen Sensor Green signal, relative)” value [1] was 1.081 and 0.9897 and 0.9798 and the “Stability, % remaining at 24 h” value ([2]; HPLC) was 50%.

In the case of COc1ccc(/C=C/c2cc[n+]([Ru-4]345([n+]6ccccc6-c6cccc([n+]63)-c3cccc[n+]34)[n+]3c(cc(C(=O)[O-])c4ccccc43)-c3cc(C(=O)[O-])c4ccccc4[n+]35)cc2)c(OC)c1 [Compound 6], the “irradiation-induced 1O2 production (Singlet Oxygen Sensor Green signal, relative)” value [1] is reported as 0.9896 and 0.937 and 1.032, the “degradation with GSH” value ([2]; 5 % DMSO / di-H2O, 100 μM GSH, 37 °C, 72 hours) is reported as “less than 2%” and the degradation with imidazole ([2]; 5 % DMSO / di-H2O, 100 μM imidazole, 37 °C, 72 hours) is reported as “less than 2%”. For the same compound, the “Stability, % remaining at 24 h” value ([2]; HPLC) was 98.6% and the “degradation at 24 hours” value ([2]; 37 °C, di-H2O : MeCN mixture (4:1), HPLC) was “less than 2%”.

In the case of COc1ccc(C=Cc2ccncc2)c(OC)c1 [Compound 3], the “increase of thermal stability of CYP1B1” value (recombinant CYP1B1; 10 μM compound) is reported as 2 °C and the Tm (recombinant CYP1B1; recombinant CYP1B1 + 10 µM compound, no compound 47.9) is reported as 50.4 +/− 0.26 °C.
